pIC50: −log10 of the molar value. Like-named read-outs stand apart in the source and are kept apart here.
System: Escherichia coli ATCC 25922
Test: 50% growth inhibitory concentration (IC50) determination, Iso-Sensitest broth dilution
Type: cell-based
Conditions: strain Escherichia coli ATCC 25922, 10-point broth dilution, optical density at 600 nm over 16 h, read-out: Escherichia coli growth inhibition IC50
In short: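 Growth was tracked as optical density at 600 nm every 20 minutes for 16 h at 35±2° C. Compounds from DMSO stocks were serially diluted twofold over 10 points (e.g. 50–0.097 μM final) in Iso-Sensitest broth. Inhibition computed in log-phase growth to give IC50.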

[1] = Escherichia coli, ATCC25922, 16 h

Row | SMILES | pIC50 [1] | pIC50
1 | CONC(=O)COc1cc(F)c2c(c1)CC(CNCCC1CN(c3cnc4c(n3)NC(=O)CO4)C(=O)O1)C2 (centres unmarked) [Example 311, 2-[[7-Fluoro-2-[[2-[2-oxo-3-(3-oxo-4H-pyrazino[2,3-b][1,4]oxazin-6-yl)-1,3-oxazolidin-5-yl]ethylamino]methyl]-2,3-dihydro-1H-inden-5-yl]oxy]-N-methoxyacetamide; formic acid] | 6.42 | 
2 | N#Cc1c(OC2CNC2)ccc2c1CC(CNCCC1CN(c3ccc4c(n3)NC(=O)CO4)C(=O)O1)C2 (centres unmarked) [Example 132, 5-(azetidin-3-yloxy)-2-[[2-[2-oxo-3-(3-oxo-4H-pyrido[3,2-b][1,4]oxazin-6-yl)-1,3-oxazolidin-5-yl]ethylamino]methyl]-2,3-dihydro-1H-indene-4-carbonitrile; formic acid] | 6.84 | 
3 | N#Cc1cccc2c1C(O)C(CNCCC1CN(c3ccc4c(n3)NC(=O)CS4)C(=O)O1)C2 (racemic) [Example 152, rac-2,3-trans-3-hydroxy-2-[[2-[2-oxo-3-(3-oxo-4H-pyrido[3,2-b][1,4]thiazin-6-yl)-1,3-oxazolidin-5-yl]ethylamino]methyl]-2,3-dihydro-1H-indene-4-carbonitrile; formic acid] | 6.83 | 
4 | Cc1nc(OC[C@H](N)CO)c(C)c2c1CC(CNCCC1CN(c3ccc4c(n3)NC(=O)CO4)C(=O)O1)C2 (stereo partly drawn) [Example 234, 6-[5-[2-[[3-[(2R)-2-Amino-3-hydroxypropoxy]-1,4-dimethyl-6,7-dihydro-5H-cyclopenta[c]pyridin-6-yl]methylamino]ethyl]-2-oxo-1,3-oxazolidin-3-yl]-4H-pyrido[3,2-b][1,4]oxazin-3-one] | 6.67 | 
5 | Cc1ncc(F)c2c1CC(CN1CCC3(CC1)CN(c1cnc4c(n1)NC(=O)CO4)C(=O)O3)C2 (centres unmarked) [Example 258, 6-[8-[(4-Fluoro-1-methyl-6,7-dihydro-5H-cyclopenta[c]pyridin-6-yl)methyl]-2-oxo-1-oxa-3,8-diazaspiro[4.5]decan-3-yl]-4H-pyrazino[2,3-b][1,4]oxazin-3-one] | 6.66 | 
6 | NC1c2cccc(Cl)c2CC1CNCCC1CN(c2cnc3c(c2)NC(=O)CO3)C(=O)O1 (racemic) [Example 135, 7-[2-oxo-5-[2-[[rac-1,2-trans-1-amino-4-chloro-2,3-dihydro-1H-inden-2-yl]methylamino]ethyl]-1,3-oxazolidin-3-yl]-1H-pyrido[2,3-b][1,4]oxazin-2-one; formic acid] | 5.24 | 
7 | Cc1nnc(C)c2c1CC(CNCCC1CN(c3cnc4c(n3)NC(=O)CO4)C(=O)O1)C2 (centres unmarked) [Example 283, 6-[5-[2-[(1,4-dimethyl-6,7-dihydro-5H-cyclopenta[d]pyridazin-6-yl)methylamino]ethyl]-2-oxo-1,3-oxazolidin-3-yl]-4H-pyrazino[2,3-b][1,4]oxazin-3-one] | 6.05 | 
8 | Cc1ncnc2c1CC(CNCCC1CN(c3ccc4c(n3)NC(=O)CO4)C(=O)O1)C2 (centres unmarked) [Example 421, 6-[5-[2-[(4-methyl-6,7-dihydro-5H-cyclopenta[d]pyrimidin-6-yl)methylamino]ethyl]-2-oxo-1,3-oxazolidin-3-yl]-4H-pyrido[3,2-b][1,4] oxazin-3-one] | 6.21 | 
9 | O=C1COc2ccc(N3CC(CCCNC4Cc5ccc(F)cc5C4)OC3=O)nc2N1 (centres unmarked) [Example 12, 6-[5-[3-[(5-fluoro-2,3-dihydro-1H-inden-2-yl)amino]propyl]-2-oxo-1,3-oxazolidin-3-yl]-4H-pyrido[3,2-b][1,4]oxazin-3-one; formic acid] | 6.33 | 
10 | O=C1COc2ccc(N3CC(NCCNC4Cc5cccc(F)c5C4)CC3=O)nc2N1 (centres unmarked) [Example 120, 6-[4-[2-[(4-fluoro-2,3-dihydro-1H-inden-2-yl)amino]ethylamino]-2-oxopyrrolidin-1-yl]-4H-pyrido[3,2-b][1,4]oxazin-3-one; formic acid] | 6.36 | 
11 | N#Cc1cccc2c1CC(N[C@H]1CC[C@H](C3CN(c4ccc5c(n4)NC(=O)CO5)C(=O)O3)CC1)C2 (stereo partly drawn) [Example 34, 2-[[trans-4-[2-oxo-3-(3-oxo-4H-pyrido[3,2-b][1,4]oxazin-6-yl)-1,3-oxazolidin-5-yl]cyclohexyl]amino]-2,3-dihydro-1H-indene-4-carbonitrile; formic acid] | 5.78 | 
12 | Cc1ncc(F)c2c1CC(CN[C@H]1C[C@H](C3CN(c4cnc5c(n4)NC(=O)CO5)C(=O)O3)C1)C2 (stereo partly drawn) [Example 361, 6-[5-[trans-3-[(4-fluoro-1-methyl-6,7-dihydro-5H-cyclopenta[c]pyridin-6-yl)methylamino]cyclobutyl]-2-oxo-1,3-oxazolidin-3-yl]-4H-pyrazino[2,3-b][1,4]oxazin-3-one] | 6.47 | 
13 | O=C1COc2ccc(N3CC(CCNCC4Cc5cccc(Cl)c5C4)OC3=O)nc2N1 (single isomer, unassigned; isomer b) [Example 7, 6-[5-[2-[(4-chloro-2,3-dihydro-1H-inden-2-yl)methylamino]ethyl]-2-oxo-1,3-oxazolidin-3-yl]-4H-pyrido[3,2-b][1,4]oxazin-3-one, Isomer B; formic acid] |  | > 7.01
14 | Cc1ncc(F)c2c1CC(NC1CC(C3CN(c4cnc5c(n4)NC(=O)CO5)C(=O)O3)C1)C2 (single isomer, unassigned; isomer b) [Example 329, 6-[5-[3-[(4-fluoro-1-methyl-6,7-dihydro-5H-cyclopenta[c]pyridin-6-yl)amino]cyclobutyl]-2-oxo-1,3-oxazolidin-3-yl]-4H-pyrazino[2,3-b][1,4]oxazin-3-one, Isomer B] |  | 6.34
15 | COc1cc2c(c(Cl)n1)CC(CNCCC1CN(c3ccc4c(n3)NC(=O)CO4)C(=O)O1)C2 (centres unmarked) [Example 49, 6-[5-[2-[(1-chloro-3-methoxy-6,7-dihydro-5H-cyclopenta[c]pyridin-6-yl)methylamino]ethyl]-2-oxo-1,3-oxazolidin-3-yl]-4H-pyrido[3,2-b][1,4]oxazin-3-one] | 6.71 | 

Other lines, results leading:

Row | pIC50 [1] | pIC50 | SMILES
16 | > 7.01 |  | O=C1COc2ccc(N3CC(CCNCC4Cc5cccc(Cl)c5C4)OC3=O)nc2N1 (single isomer, unassigned; isomer a) [Example 6, 6-[5-[2-[(4-chloro-2,3-dihydro-1H-inden-2-yl)methylamino]ethyl]-2-oxo-1,3-oxazolidin-3-yl]-4H-pyrido[3,2-b][1,4]oxazin-3-one, Isomer A]
17 | 6.92 |  | O=C1COc2ncc(N3CC(CCNCC4Cc5c(F)cnc(-c6cn[nH]c6)c5C4)OC3=O)nc2N1 (centres unmarked) [Example 432, 6-[5-[2-[[4-fluoro-1-(1H-pyrazol-4-yl)-6,7-dihydro-5H-cyclopenta[c]pyridin-6-yl]methylamino]ethyl]-2-oxo-1,3-oxazolidin-3-yl]-4H-pyrazino[2,3-b][1,4]oxazin-3-one]
18 | > 7.01 |  | Cc1nc(C)c2c(c1F)CC(CNCCC1CN(c3cnc4c(n3)NC(=O)CO4)C(=O)O1)C2 (centres unmarked) [Example 352, 6-[5-[2-[(4-fluoro-1,3-dimethyl-6,7-dihydro-5H-cyclopenta[c]pyridin-6-yl)methylamino]ethyl]-2-oxo-1,3-oxazolidin-3-yl]-4H-pyrazino[2,3-b][1,4]oxazin-3-one; formic acid]
19 | > 7.01 |  | Cc1nc(C)c2c(c1C)CC(CNCCC1CN(c3cnc4c(n3)NC(=O)CO4)C(=O)O1)C2 (centres unmarked) [Example 269, 6-[2-Oxo-5-[2-[(1,3,4-trimethyl-6,7-dihydro-5H-cyclopenta[c]pyridin-6-yl)methylamino]ethyl]-1,3-oxazolidin-3-yl]-4H-pyrazino[2,3-b][1,4]oxazin-3-one]
20 | > 7.01 |  | NC1c2cccc(Cl)c2CC1CNCCC1CN(c2ccc3c(n2)NC(=O)CO3)C(=O)O1 (racemic) [Example 226, 6-[2-Oxo-5-[2-[[rac-1,2-trans-1-amino-4-chloro-2,3-dihydro-1H-inden-2-yl]methylamino]ethyl]-1,3-oxazolidin-3-yl]-4H-pyrido[3,2-b][1,4]oxazin-3-one]
21 | > 7.01 |  | N#Cc1c(OC2COC2)ccc2c1CC(CNCCC1CN(c3ccc4c(n3)NC(=O)CO4)C(=O)O1)C2 (centres unmarked) [Example 63, 5-(oxetan-3-yloxy)-2-[[2-[2-oxo-3-(3-oxo-4H-pyrido[3,2-b][1,4]oxazin-6-yl)-1,3-oxazolidin-5-yl]ethylamino]methyl]-2,3-dihydro-1H-indene-4-carbonitrile]
22 | > 7.01 |  | NC1c2c(Cl)cccc2CC1CNCCC1CN(c2cnc3c(n2)NC(=O)CO3)C(=O)O1 (racemic) [Example 169, 6-[2-oxo-5-[2-[[rac-1,2-trans-1-amino-7-chloro-2,3-dihydro-1H-inden-2-yl]methylamino]ethyl]-1,3-oxazolidin-3-yl]-4H-pyrazino[2,3-b][1,4]oxazin-3-one]
23 | > 7.01 |  | C[C@H](N)COc1cc(F)c2c(c1)CC(CN1CCC3(CC1)CN(c1cnc4c(n1)NC(=O)CO4)C(=O)O3)C2 (stereo partly drawn) [Example 356, 6-[8-[[6-[(2S)-2-aminopropoxy]-4-fluoro-2,3-dihydro-1H-inden-2-yl]methyl]-2-oxo-1-oxa-3,8-diazaspiro[4.5]decan-3-yl]-4H-pyrazino[2,3-b][1,4]oxazin-3-one; formic acid]
24 | > 7.01 |  | Cc1ncc(F)c2c1CC(C(C)NCC[C@H]1CN(c3cnc4c(n3)NC(=O)CO4)C(=O)O1)C2 (stereo partly drawn) [Example 330, 6-[(5S)-5-[2-[1-(4-fluoro-1-methyl-6,7-dihydro-5H-cyclopenta[c]pyridin-6-yl)ethylamino]ethyl]-2-oxo-1,3-oxazolidin-3-yl]-4H-pyrazino[2,3-b][1,4]oxazin-3-one; formic acid]
25 | > 7.01 |  | CC(C)(N)COc1cc(C#N)c2c(c1)CC(CN1CCC3(CC1)CN(c1cnc4c(n1)NC(=O)CO4)C(=O)O3)C2 (centres unmarked) [Example 407, 6-(2-amino-2-methylpropoxy)-2-[[2-oxo-3-(3-oxo-4H-pyrazino[2,3-b][1,4]oxazin-6-yl)-1-oxa-3,8-diazaspiro[4.5]decan-8-yl]methyl]-2,3-dihydro-1H-indene-4-carbonitrile]
26 | > 7.01 |  | NC1c2c(Cl)cccc2CC1CNCCC1CN(c2ccc3c(n2)NC(=O)CO3)C(=O)O1 (racemic) [Example 168, 6-[2-oxo-5-[2-[[rac-1,2-trans-1-amino-7-chloro-2,3-dihydro-1H-inden-2-yl]methylamino]ethyl]-1,3-oxazolidin-3-yl]-4H-pyrido[3,2-b][1,4]oxazin-3-one; formic acid]

Reference: patent publication US20230167127A1, “COMPOUNDS AND THEIR USE IN THE TREATMENT OF BACTERIAL INFECTION” (Hoffmann-La Roche Inc., priority 2020, published 2023)
